T1: SNX25 PX domain (Homo sapiens, UniProt Q9H3E2)
T1 construct: PX domain only, 15N-labelled, from GST fusion in E. coli
T1 sequence (Q9H3E2 506-628): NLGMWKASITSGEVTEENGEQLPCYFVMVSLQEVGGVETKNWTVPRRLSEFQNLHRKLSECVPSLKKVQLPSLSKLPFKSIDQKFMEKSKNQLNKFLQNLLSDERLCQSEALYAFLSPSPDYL

B1: SNX15 PX domain (domain or fragment, human)
chain: MSRQAKDDFLRHYTVSDPRTHPKGYTEYKVTAQFISKKDPEDVKEVVVWKRYSDFRKLHGDLAYTHRNLFRRLEEFPAFPRAQVFGRFEASVIEERRKGAEDLLRFTVHIPALNNSPQLKEFFRGG
notes: source: E. coli BL21(DE3)/pLysS, purified (glutathione-Sepharose, thrombin cleavage, size exclusion chromatography); not shown: GST, N-terminal, cleaved

Experiments:
SNX25 PX domain = target: T1, SNX25 PX domain; assay: 1H-15N HSQC NMR titration; assay type: binding; settings: pH 7.0, 100 mM NaCl, 298 K; secondary site (Lys734)
[1] = target: the molecule itself; assay: SEC; analytical gel filtration, Superdex 200 10/300, 50 mM Tris (pH 8.0), 100 mM NaCl, 2 mM DTT; 100 µl of SNX15 PX domain at 500 µM, 0.5 ml/min, 4 °C; mass from a calibration curve of standards

Molecule | 1H-15N HSQC NMR titration (SNX25 PX domain) | stoichiometry N [1]
CCCCCCCC(=O)OC[C@H](COP(=O)(O)O[C@H]1[C@H](O)[C@@H](O)[C@H](OP(=O)(O)O)[C@@H](OP(=O)(O)O)[C@H]1O)OC(=O)CCCCCCC [PtdIns(3,4)P2 headgroup analogue] | significant chemical shift perturbations were observed with di- and tri-phosphorylated phosphoinositides (PIP2 and PIP3) | 
CCCCCCCC(=O)OC[C@H](COP(=O)(O)O[C@H]1[C@H](O)[C@@H](OP(=O)(O)O)[C@H](OP(=O)(O)O)[C@@H](OP(=O)(O)O)[C@H]1O)OC(=O)CCCCCCC [PtdIns(3,4,5)P3 headgroup analogue] | significant chemical shift perturbations were observed with di- and tri-phosphorylated phosphoinositides (PIP2 and PIP3) | 
CCCCCCCC(=O)OC[C@H](COP(=O)(O)O[C@@H]1[C@H](O)[C@H](O)[C@@H](OP(=O)(O)O)[C@H](OP(=O)(O)O)[C@H]1O)OC(=O)CCCCCCC [PtdIns(4,5)P2 headgroup analogue] | significant chemical shift perturbations were observed with di- and tri-phosphorylated phosphoinositides (PIP2 and PIP3) | 
B1 |  | 2

From paper PMC6449406, “Classification of the human phox homology (PX) domains based on their phosphoinositide binding specificities” (Nature Communications, 2019)
